# Measurements reported in the supplement of paper PMC10307832.
# Key:
# Experiment in all cases: relative viability (nuclei count vs DMSO), 5 days (fraction); higher = more cells survive
# [1] = compound: C(C(=O)C(=O)O)Br [Bromopyruvate] + CC(=O)Nc1cccc(-n2c(=O)n(C3CC3)c(=O)c3c(Nc4ccc(I)cc4F)n(C)c(=O)c(C)c32)c1 [Trametinib] (partner 0.02 µM)
# Method in brief: (§1)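 Dosing by pin tool came one day after lung cancer cell lines were seeded in 1536-well plates, using either one drug or a fixed anchor-drug dose plus five library-drug doses (not always all listed) in √10 steps. After 5 days, nuclei were counted on 4× images. Relative viability is treated-well nuclei count divided by vehicle-well nuclei count, and values are medians of duplicate plates.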
# Bromopyruvate + AZD7762 = compound: C(C(=O)C(=O)O)Br [Bromopyruvate] + NC(=O)Nc1cc(-c2cccc(F)c2)sc1C(=O)N[C@H]1CCCNC1 [AZD7762] (partner 0.2 µM)
# Method in brief: as §1
# [2] = compound: C(C(=O)C(=O)O)Br [Bromopyruvate] + CS(=O)(=O)N1CCN(Cc2cc3nc(-c4cccc5[nH]ncc45)nc(N4CCOCC4)c3s2)CC1 [Pictilisib] (partner 1 µM)
# Method in brief: as §1
# [3] = compound: CC(O)(CS(=O)(=O)c1ccc(F)cc1)C(=O)Nc1ccc(C#N)c(C(F)(F)F)c1 [Bicalutamide] + N=C(N)NC(=N)NCCc1ccccc1 [Phenformin] (partner 250 µM)
# Method in brief: as §1
Cell Line,relative viability ([1]; first compound 1 µM),relative viability ([1]; first compound 3.162 µM),relative viability ([1]; first compound 10 µM),relative viability ([1]; first compound 31.62 µM),relative viability ([1]; first compound 100 µM),relative viability (Bromopyruvate + AZD7762; first compound 1 µM),relative viability (Bromopyruvate + AZD7762; first compound 3.162 µM),relative viability (Bromopyruvate + AZD7762; first compound 10 µM),relative viability (Bromopyruvate + AZD7762; first compound 31.62 µM),relative viability (Bromopyruvate + AZD7762; first compound 100 µM),relative viability ([2]; first compound 1 µM),relative viability ([2]; first compound 3.162 µM),relative viability ([2]; first compound 10 µM),relative viability ([2]; first compound 31.62 µM),relative viability ([2]; first compound 100 µM),relative viability ([3]; first compound 0.08 µM),relative viability ([3]; first compound 0.253 µM),relative viability ([3]; first compound 0.8 µM),relative viability ([3]; first compound 2.53 µM)
NCI-H1734,0.743,0.765,0.64,0.717,0.66,0.536,0.7,0.694,0.53,0.544,0.493,0.486,0.542,0.551,0.451,0.41,0.338,0.458,0.416
EMC-BAC-2,0.753,1.01,0.985,,0.959,1.04,1.16,1.09,1.04,1.1,0.472,0.557,0.572,0.539,0.622,0.541,0.554,0.609,0.46
NCI-H596,0.743,0.84,0.789,0.74,0.845,1.08,1.28,1.12,1.17,0.993,0.431,0.396,0.419,0.419,0.423,0.586,0.643,0.794,0.897
NCI-H650,0.971,1.02,0.928,0.955,0.991,0.931,1.18,0.934,1.05,0.945,0.804,0.778,0.972,0.92,1.01,0.52,0.433,0.466,0.395
NCI-H1792,0.392,0.448,0.382,0.364,0.435,0.678,0.783,0.792,0.798,0.655,0.306,0.29,0.328,0.317,0.212,0.275,,0.444,0.344
ChaGo-K-1,0.887,0.911,0.963,0.855,0.903,0.881,0.868,0.874,0.866,0.92,0.978,0.766,0.581,0.685,0.622,0.449,0.388,0.509,0.48
LOU-NH91,0.79,0.761,0.799,0.826,0.866,0.801,0.755,0.742,0.771,0.837,0.588,0.548,0.48,0.516,0.589,0.745,0.493,0.814,0.821
NCI-H3122,0.223,0.237,0.24,0.204,0.129,1.03,0.967,1.04,0.989,0.921,0.553,0.664,0.879,0.554,0.567,0.46,0.416,0.378,0.369
LCLC-97TM1,0.193,0.188,0.2,0.165,0.277,0.224,0.375,0.207,0.275,0.236,,,0.244,0.191,0.183,0.442,0.426,0.463,0.443
